ChEMBL document CHEMBL1201862, “PubChem BioAssay data set” (2004)
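Interpolation was linear, between the two tested concentrations surrounding the appropriate level; five concentrations were tested over 48 hours in 96-well plates. Abbreviation: GI50, concentration required for 50% inhibition of growth.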 Calls of active or inactive are those of the source. No stated cut-off is given here; in the data, active = GI50 up to about 1.1 µM and inactive = higher.

How the values were obtained:
Experiment in all cases: growth of human tumour cells (NCI), 48 h
OVCAR-5 = system: OVCAR-5
HOP-62 = system: HOP-62
CAKI-1 = system: CAKI-1
HOP-92 = system: HOP-92
M14 = system: M14
PC-3 = system: PC-3
OVCAR-8 = system: OVCAR-8
SN12C = system: SN12C
SNB-75 = system: SNB-75
RXF 393 = system: RXF 393
SF-268 = system: SF-268
A498 = system: A498
KM12 = system: KM12
RPMI-8226 = system: RPMI-8226
MDA-N = system: MDA-N
EKVX = system: EKVX
NCI/ADR-RES = system: NCI/ADR-RES
HL-60 = system: HL-60
UACC-257 = system: UACC-257
SK-OV-3 = system: SK-OV-3

Measured: GI50

Nc1c([N+](=O)[O-])cc2c3c(cccc13)CC2
inactive: OVCAR-5 > 100 µM | HOP-62 74.6 µM | CAKI-1 > 100 µM | HOP-92 > 100 µM | M14 > 100 µM | PC-3 > 100 µM | OVCAR-8 71.3 µM | SN12C 62.8 µM | SNB-75 > 100 µM | RXF 393 23.1 µM | SF-268 83.6 µM | A498 33.7 µM | KM12 > 100 µM | RPMI-8226 55.7 µM | MDA-N > 100 µM | EKVX 26.7 µM | NCI/ADR-RES 40.8 µM | HL-60 74.6 µM | UACC-257 > 100 µM | SK-OV-3 51.2 µM

NC(Cc1ccnnc1)C(=O)O (stereo not given)
inactive: OVCAR-5 > 100 µM | HOP-62 > 100 µM | CAKI-1 > 100 µM | HOP-92 > 100 µM | M14 > 100 µM | PC-3 > 100 µM | OVCAR-8 > 100 µM | SN12C > 100 µM | SNB-75 > 100 µM | RXF 393 > 100 µM | SF-268 > 100 µM | A498 > 100 µM | KM12 > 100 µM | RPMI-8226 > 100 µM | MDA-N > 100 µM | EKVX > 100 µM | NCI/ADR-RES > 100 µM | HL-60 > 100 µM | UACC-257 > 100 µM | SK-OV-3 > 100 µM

CC1=NC(=O)C(C)(c2ccccc2)N1CCc1ccccc1 (stereo not given)
inactive: OVCAR-5 > 100 µM | HOP-62 > 100 µM | CAKI-1 > 100 µM | HOP-92 16.9 µM | M14 > 100 µM | PC-3 44.7 µM | OVCAR-8 > 100 µM | SN12C > 100 µM | SNB-75 16.5 µM | RXF 393 24.7 µM | SF-268 > 100 µM | A498 21.7 µM | KM12 44.3 µM | RPMI-8226 63.1 µM | MDA-N 36.3 µM | EKVX > 100 µM | NCI/ADR-RES 67.9 µM | HL-60 51.5 µM | UACC-257 72.9 µM | SK-OV-3 > 100 µM

CCOC(=O)C(NC(=O)c1ccccc1)(Nc1ccc(Cl)cc1C(F)(F)F)C(F)(F)F (stereo not given)
inactive: OVCAR-5 13.5 µM | HOP-62 3.91 µM | CAKI-1 7.5 µM | HOP-92 4.99 µM | M14 4.13 µM | PC-3 3.13 µM | OVCAR-8 5.36 µM | SN12C 4.45 µM | SNB-75 2.29 µM | RXF 393 3.44 µM | SF-268 > 37.4 µM | A498 6.05 µM | KM12 1.42 µM | RPMI-8226 2.96 µM | MDA-N 1.51 µM | EKVX 5.6 µM | NCI/ADR-RES 2.76 µM | HL-60 1.98 µM | UACC-257 9.64 µM | SK-OV-3 9.4 µM

COC(=O)[C@]12CC[C@H]3CC[C@H]([C@H]31)[C@H](c1ccccc1)N2
inactive: OVCAR-5 17.3 µM | HOP-62 17.4 µM | CAKI-1 17.7 µM | HOP-92 15.8 µM | M14 17.9 µM | PC-3 16.3 µM | OVCAR-8 17.4 µM | SN12C 15.7 µM | SNB-75 26.9 µM | RXF 393 14.2 µM | SF-268 19.6 µM | A498 17.6 µM | KM12 18.5 µM | RPMI-8226 14.2 µM | MDA-N 17.9 µM | EKVX 16.8 µM | NCI/ADR-RES 13.9 µM | HL-60 19.1 µM | UACC-257 15.1 µM | SK-OV-3 25.4 µM

CC(C)Cc1ccc(C(C)/C=C2\CCC(CN(C)C)C2=O)cc1 (stereo not given)
inactive: OVCAR-5 23 µM | HOP-62 9.23 µM | CAKI-1 17.5 µM | HOP-92 19 µM | M14 12.9 µM | PC-3 10.5 µM | OVCAR-8 9.38 µM | SN12C 10 µM | SNB-75 14.1 µM | RXF 393 20.1 µM | SF-268 11.6 µM | A498 19.5 µM | KM12 5.27 µM | RPMI-8226 1.56 µM | MDA-N 10.2 µM | EKVX 19.9 µM | NCI/ADR-RES 5.89 µM | HL-60 5.61 µM | UACC-257 14.8 µM | SK-OV-3 19.5 µM
